# Measurements from the METLIN SMRT retention time set (Domingo-Almenara et al. 2019).
# Assay: gradient 5% acetonitrile 3 min, to 50% in 2 min, to 85% in 15 min, held 3 min, 100 µL/min
# Settings: column: Zorbax Extend-C18 2.1 x 50 mm; eluents: water / acetonitrile, 0.1% formic acid
# Outline: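 A Zorbax Extend-C18 column (2.1 × 50 mm, 1.8 μm) run at 100 μL/min with water and acetonitrile, both containing 0.1% formic acid, separated mixtures of ~100 pure standards. The HPLC was coupled to a quadrupole time-of-flight mass spectrometer operated in positive and negative ionization mode, with dead and dwell volumes of 40 μL and 900 μL. Each retention time was taken from a computationally picked adduct peak that was then manually inspected.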
row,RP-LC retention time,SMILES
1,753 s,CCc1noc2nc(C)n(CC(=O)NCc3ccccc3)c(=O)c12
2,874 s,Cc1ccccc1CNC(=O)CN1C(=O)C(C)(C)c2ccccc21
3,946 s,Cc1nn(-c2ccc(Cl)nn2)c2c1CCC2
4,646 s,CCOC(=O)c1c(C)[nH]c(C)c1S(=O)(=O)N1CCC(C(=O)Nc2ccc(C)cn2)CC1
5,800 s,COc1ccc(Cl)cc1S(=O)(=O)N1CCc2nn(CC3CC3)c(=O)n2CC1
6,747 s,O=C(Cc1csc(NC(=O)c2ccsc2)n1)NCCOc1ccc(F)cc1
7,544 s,O=C(NCc1cccnc1)C(CCO)Sc1nc2sc3c(c2c(=O)[nH]1)CCCC3 (centres undefined)
8,1080 s,Cc1cc(-c2c(C)sc(C)c2S(=O)(=O)Nc2ccc(C)c(F)c2)n[nH]1
9,653 s,Cc1ccccc1OCC(=O)N1CCN(c2nc(CN3CCOCC3)cs2)CC1
10,658 s,CN1C(=O)c2cccn2CC1CNC(=O)NCc1ccc(F)cc1 (centres undefined)
11,851 s,CCOc1ccccc1NC(=O)N1CCN(c2ccc(=O)n(-c3ccccc3)n2)CC1
12,541 s,CCNc1cc(-n2ccnc2)ncn1
13,806 s,c1ccc(-c2ccc(-c3nccc4ccccc34)[nH]2)cc1
14,736 s,COc1ccc(OC)c(S(=O)(=O)NCC(O)Cc2ccccc2)c1 (centres undefined)
15,672 s,Fc1ccc(F)c(CNc2nnc(-c3nc(C4CC4)no3)c3ccccc23)c1
16,582 s,Cc1ccc(CNC(=O)N2CC(N(CC3CC3)C3CCOCC3)C2)cc1
17,544 s,O=C(NCCc1ccncc1)C1CN(C(=O)COc2ccccc2F)C1
18,754 s,CN1CCc2c(n(CC(O)Cn3nnc4ccccc43)c3ccccc23)C1=O (centres undefined)
19,686 s,Cc1ccc(S(=O)(=O)N2CCN(CCc3cn(C)c4ncccc34)CC2)cc1Cl
20,629 s,O=C(O)c1nnn(-c2ccc(F)cc2)c1-c1cccnc1
21,1320 s,CC(C)CN1CCn2cc(S(=O)(=O)Nc3ccccc3F)cc2C1=O

row,RP-LC retention time,SMILES
1,1180 s,COc1cccc(N2CCN(C(=O)c3cc4c(-c5cccs5)nn(-c5ccccc5)c4n3C)CC2)c1
2,854 s,O=C(NC1CCCCCCC1)C1CCCN(S(=O)(=O)c2c[nH]c(C(=O)N3CCCC3)c2)C1 (centres undefined)
3,649 s,Cc1nnc2c(=O)n(CC(=O)NCc3ccccc3F)c3cccnc3n12
4,823 s,CC1(C(=O)NCc2ccc(F)cc2)Cn2cnc(C(=O)NC3CCCCCC3)c2C(=O)N1C1CC1 (centres undefined)
5,713 s,Cc1nc(-c2ccccn2)cc2nn(CC(=O)NCCC(C)C)c(=O)n12
6,834 s,Cc1sc2ccn(C)c(=O)c2c1C(=O)NCc1cccc(Br)c1
7,1040 s,CC(C)Cn1c(=O)c2ccccc2n(Cc2nc(-c3ccccc3)no2)c1=O
8,815 s,COc1ccc(C2C(C(=O)Nc3cc(OC)c(OC)c(OC)c3)c3ccccc3C(=O)N2C)cc1 (centres undefined)
9,737 s,CCNC(=O)c1sc2nc(-c3cccc(C)c3)c(NCCOC)n2c1C
10,742 s,COc1cc(OC)cc(C(=O)N2CCC3(CC2)NC(=O)c2ccc(Cl)cc2N3)c1
11,555 s,Cc1cc(C)c2c(N3CCOCC3)nc(C(=O)NCCN3CCCCCC3)nc2n1
12,762 s,COCCCNC(=O)Nc1ccc2c(c1)CCN2S(=O)(=O)c1ccccc1
13,589 s,COCC(=O)NC1CCC12CCN(C(C)=O)CC2 (centres undefined)
14,640 s,CN(CCNC(=O)Cn1c2ccccc2c2cnn(C)c(=O)c21)Cc1ccccc1
15,907 s,CCC(C)NC(=O)c1cn(-c2cc(-c3nc(C(C)C)no3)ccn2)cn1 (centres undefined)
16,677 s,CCn1nccc1C1CCCN1C(=O)c1c(Cl)cnn1C (centres undefined)
17,1250 s,Cc1ccc(CNc2ccc(-c3nc(-c4ccc(F)cc4)no3)cn2)cc1
18,1130 s,CCN1C(=O)C2(CCN(S(=O)(=O)c3cc(F)ccc3C)CC2)c2ccccc21
19,826 s,O=C(Cn1c(=O)n(Cc2ccc3c(c2)OCO3)c(=O)c2ncccc21)N1CCCc2ccccc21
20,725 s,CCc1ccc(-n2nnc(C(=O)NCCOC)c2-c2ccncc2)cc1

# Further lines, the compound ahead of its results:
row,SMILES,RP-LC retention time
1,Cc1noc(-c2ccc(OC3CN(C(=O)Nc4cccc(F)c4)C3)cc2)n1,838 s
2,Cc1cccc(NC(=O)N2CCC(N3CCN(Cc4ccccn4)C(=O)C3=O)CC2)c1,610 s
3,CCOC(=O)c1nnn(-c2ccccc2OCC)c1C(=O)OCC,970 s
4,Cc1ccc(NC(=O)C2CC(=O)N(c3n[nH]c4ccccc34)C2)nc1 (centres undefined),594 s
5,COc1cc(Cl)c(C)cc1NC(=O)C1CCN(c2c(C(=O)N3CCOCC3)cnc3snc(C)c23)CC1,945 s
6,CN1C(=O)c2cc(C(=O)NCc3ccccc3Br)nn2CC1(C)C(=O)NC1CCCC1 (centres undefined),828 s
7,CCCCC(=O)N1CCN(c2ncccc2-c2nnc(C(C)C)o2)CC1,794 s
8,CCC1Oc2ccc(S(=O)(=O)N3CCC(C(=O)Nc4ccc(F)cc4C)CC3)cc2NC1=O (centres undefined),922 s
9,Cc1cccc(N2CCN(C(=O)C3CCCN(c4nc5ccccc5n5cccc45)C3)CC2)c1C (centres undefined),977 s
10,CCOc1ncccc1CNC(=O)c1cnccn1,600 s
11,CC1CN(c2nc3ccccc3nc2C(C#N)C(=O)OCc2ccccc2)CC(C)O1 (centres undefined),1140 s
12,CN(Cc1ccc(F)cc1Cl)C1CCc2nnc(C3CCOCC3)n2CC1 (centres undefined),561 s
13,Cc1cc(F)cc2c(=O)c3c([nH]c12)CCN(CC(=O)Nc1cc(F)cc(F)c1)C3,635 s
14,Cc1cc(N(C)C)nc(NCCNC(=O)C(C)(C)Oc2ccc(Cl)cc2)n1,598 s
15,CCCn1nnc(NCc2ccc(-c3cccc(Cl)c3C)o2)n1,1130 s
16,Cc1nn(-c2ccccc2)c(C)c1S(=O)(=O)N1CCC(C(=O)NC2CCCC2)CC1,860 s
17,O=C(NCc1ccccn1)C1c2ccccc2C(=O)N(Cc2ccccc2)C12CCCC2 (centres undefined),704 s
18,CCOc1ccc(C(=O)N2CCC3(C2)C(=O)N(C)c2ccccc23)cc1 (centres undefined),802 s
19,CCCCN(C)C(=O)C1CCN(c2cncnc2N2CCOCC2)CC1,614 s
20,CCOc1nc2ccccc2nc1N1CCCC(C(=O)NC2CCCCC2)C1 (centres undefined),1170 s
21,O=C(NCc1ccccc1)N1CCN(c2nc3cccnc3n(Cc3ccccc3)c2=O)CC1,1020 s
22,O=S(=O)(Nc1ccc(-c2noc(COc3ccc(F)cc3)n2)cc1)c1cccs1,1040 s
23,Cc1ccc(Cl)cc1-n1ncc2c(=O)n(Cc3nc(-c4cccc(C(F)(F)F)c4)no3)cnc21,1180 s
24,COCCCNC(=O)CN1CCN(c2cc(C(=O)O)c3cc(NC(=O)C4CCCC4)ccc3n2)CC1,575 s

row,SMILES,RP-LC retention time
1,COc1ccc(C2Cn3nnc(-c4nc(-c5ccc(C(F)(F)F)cc5)no4)c3CO2)cc1 (centres undefined),1270 s
2,Cc1ccc(-c2nc(-c3ccc4c(c3)oc(=O)n4C)no2)cc1C,1180 s
3,COc1ccc(-c2cn3c(CC(=O)Nc4cccnc4)csc3n2)cc1OC,581 s
4,COc1cc(OC)cc(C(=O)N2CCN(c3nnc4c(Cl)cccn34)CC2)c1,603 s
5,COc1ccc(-c2ccc(=O)n(Cc3nc(-c4ccc(C)cc4)no3)n2)cc1OC,925 s
6,Cc1nn(-c2nc(-c3ccc(F)cc3)cs2)c(C)c1CC(=O)N1CCCC1,1030 s
7,CCc1nc2ccccc2c(=O)n1Cc1noc(-c2ccc(C#N)cc2)n1,919 s
8,O=C(c1cn(-c2cc(N3CCCCC3)ncn2)cn1)N1CCCC1,772 s
9,CN1C(=O)c2cc(C(=O)NCc3cccc(Br)c3)nn2CC1(C)C(=O)NC1CCCC1 (centres undefined),807 s
10,O=S(=O)(c1ccccc1Br)N1CCCC1c1nc(-c2ccc(F)cc2)no1 (centres undefined),1110 s
11,COCCC1(NC(=O)c2ocnc2C)CCN(S(C)(=O)=O)CC1,614 s
12,O=C(CN1C(=O)CCc2cc(Br)ccc21)Nc1ccccn1,761 s
13,Cc1ccc(C2CC(=O)c3cnc(Nc4nc(C)c5cccc(C)c5n4)nc3C2)cc1 (centres undefined),794 s
14,COc1cc(CNC(=O)CCC(=O)N2CC3CCCN3c3ccccc32)cc(OC)c1OC (centres undefined),818 s
15,O=C(NCc1ccc(F)cc1)c1ccc2c(c1)CCN2C(=O)C1CC1,813 s
16,Cc1nc2c(sc3nc(-c4ccccc4)ccc32)c(=O)n1CC(=O)NCc1ccccc1,972 s
17,COc1cc(-c2nc3ncccn3c2Nc2ccc(C)cc2C)ccc1O,682 s
18,O=C(c1cccc(Cl)c1)N1CCC2(CC1)OCC(C(=O)N1CCCC1)N2C(=O)c1cccc(F)c1 (centres undefined),765 s
19,CC(C)S(=O)(=O)c1cc2c(cc1NC(=O)c1c(F)cccc1F)n(C)c(=O)n2C,792 s
20,COC(=O)c1ccccc1NCCO,787 s
21,COc1cc(NC(=O)Cc2csc3nc(-c4cccc(Br)c4)cn23)cc(OC)c1,974 s
22,O=C(NCCS(=O)(=O)N1CCN(c2ccccc2)CC1)c1ccc(Br)o1,807 s
23,CC(C)NC(=O)c1ccc(OCC2CCN(C(=O)c3ccc(N(C)C)cc3)CC2)cc1,816 s
24,CCN1C(=O)COc2ccc(-c3csc(NC(=O)c4ccco4)n3)cc21,840 s
